Common to all, as to assay: growth of human tumour cells (NCI), 48 h
Experiment [1] relates to SF-268.
The test system of experiment [2] is A498.
The subject of experiment [3] is K562.
The test system of experiment [4] is NCI-H460.
For experiment [5], the system named is M14.
The test system of experiment [6] is A549.
For experiment [7], the system named is SK-MEL-28.
For experiment [8], the system named is U-251.
Experiment [9] concerns HCC 2998.
For experiment [10], the system named is HL-60.
Experiment [11] concerns SNB-19.
Experiment [12] relates to IGROV-1.
Experiment [13] relates to DU-145.
For experiment [14], the system named is T47D.
In experiment [15] the test system is HT-29.
For experiment [16], the system named is HOP-62.
Experiment [17] has as its system NCI-H522.
In experiment [18] the test system is RXF 393.
Experiment [19] concerns PC-3.
For experiment [20], the system named is UO-31.

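Interpolation was linear, between the two tested concentrations surrounding the appropriate level; five concentrations were tested over 48 hours in 96-well plates. GI50 is the concentration that inhibits growth by half.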 Active and inactive are the calls of the source. No stated cut-off is given here; in the data, active = GI50 up to about 1.1 µM and inactive = higher.

Turning to `CO[C@H]1[C@@H](O)[C@@H](O)O[C@@H](O[C@H]2CC[C@@]3(C)[C@H](CC[C@@H]4[C@@H]3[C@H](O)C[C@]3(C)[C@@H](C5=CC(=O)OC5)CC[C@]43O)C2)[C@@H]1O`, the GI50 was 0.11 µM (active) in experiment [1]; 0.184 µM (active) in experiment [2]; 0.175 µM (active) in [3]; 0.0895 µM (active) in experiment [4]; 0.283 µM (active) in [5]; 0.0491 µM (active) in [6]. For the same molecule, the GI50 in experiment [7] is 0.622 µM (active); in experiment [8] it was 0.305 µM (active); in [9], 1.67 µM (inactive); in experiment [10], 0.191 µM (active); in [11] it was 0.692 µM (active); in experiment [12] it was 0.301 µM (active). In addition, the GI50 in experiment [13] is 0.0946 µM (active); in [14], 0.362 µM (active); in experiment [15], 0.435 µM (active); in experiment [16], 0.124 µM (active); in [17], 0.0239 µM (active); in [18], 0.056 µM (active). The GI50 in [19] is 0.283 µM (active); in [20], 0.163 µM (active).
On to `COc1cc(S(=O)(=O)Nc2nc(-c3ccc(N4C(=O)C(CC(=O)O)SC4c4ccccc4O)cc3)cs2)ccc1Cl` (stereo not given), for which the GI50 in experiment [1] was > 100 µM (inactive); in experiment [2], 29.1 µM (inactive); in experiment [3], 38.2 µM (inactive); in experiment [4], 82.4 µM (inactive); in experiment [5], > 100 µM (inactive); in [6], 32 µM (inactive). Besides, the GI50 in experiment [7] is > 100 µM (inactive); in [8] it was 45.8 µM (inactive); in [9] it was 9.93 µM (inactive); in experiment [10], 15.3 µM (inactive); in experiment [11], > 100 µM (inactive); in [12], 34.9 µM (inactive). Moreover, the GI50 in experiment [13] was > 100 µM (inactive); in experiment [14], 28.1 µM (inactive); in experiment [15], 90.8 µM (inactive); in experiment [16], 90.4 µM (inactive); in experiment [17] it was 85.3 µM (inactive); in [18], 61.2 µM (inactive). The values for the GI50 in experiment [19] and in experiment [20] were 59.4 µM (inactive) and > 100 µM (inactive), respectively.

The record behind these values is ChEMBL document CHEMBL1201862, “PubChem BioAssay data set” (2004).
